Measured values from US11548845B2, “Methods of isolating phenols from phenol-containing media” (WISCONSIN ALUMNI RESEARCH FOUNDATION, priority 2019, dated 2023).
“And” between values parts separate entries of the source, which are not always exact repeats. Equal entries are not always repeated. Marks after values point to notes of the source that are not given here.

Tests used:
[1] = cited from earlier work; for pka: phospholipid components of lecithin
[2] = Depletion of monomeric anthocyanins in diluted cranberry juice by surfactants, lecithins or phospholipids (pH differential method)
Experimental: Classic Mash Cranberry Juice Concentrate with essence returned was received frozen from the supplier (Ocean Spray Cranberries Inc., Lakeville-Middleboro, Mass., U.S.A.). The concentrate came at 50.0° Brix from manufacturer. It was immediately thawed, aliquoted and stored at −20° C. until use. Prior to experiment use, the concentrate was thawed, brought to room temperature, and diluted to 7.5° Brix according to the manufacture specification.
Individual surfactants/phospholipids were added to 10 mL juice samples at a final concentration of 0.01 M. Varying amounts of lecithin were added to 10 mL juice samples at 0.05, 0.1, 0.5, 1, 2, 3, 4, or 5% w/v. Lecithin with different HLB values were added to 10 mL juice samples at 1, 2, 3, 4, or 5% w/v. All mixtures were then vortexed for 3 min and then centrifuged at 3220×g for 20 min. The centrifugation step was repeated with the supernatants. All procedures were carried out at ambient temperatures unless otherwise specified.
Monomeric anthocyanin (MA) content was determined by the AOAC pH differential method. Samples were placed in 96-well plates (Thermo Scientific) for spectral acquisition using a SpectraMax Plus Microplate Reader (Molecular Devices, Sunnyvale, Calif., U.S.A.). We used the SoftMax Pro 5.4.4 to scale for pathlength (Molecular Devices, Sunnyvale, Calif., U.S.A.). Juice samples were diluted such that the absorbance at 520 nm was within the linear range of the instrument. Triplicate samples were analyzed, and the average values are reported.
The depletion of MA expressed as a percent was determined according to the following equation: […]

[3] = Interaction of 1% w/v lecithin with individual polyphenols, depletion from solution by HPLC; details: pH 2.43, anthocyanins depleted from single-strength cranberry juice, others from aqueous solution
Experimental: Aqueous polyphenol solutions near saturation were prepared by dissolving the individual polyphenols in 50 mL ultrapure water. Depends on their solubility in water, the polyphenols solutions were made in different concentrations. […] The pH of the solution was then adjusted to ˜2.43 using 6 M HCl in order to approximate the pH of juice. The adjusted solution was centrifuged at 3220×g for 20 min to remove any undissolved solids. Next, 1% w/v lecithin was added to 10 mL of the supernatant containing the polyphenols or the phenolic acids. The mixture was vortexed for 1 min and then centrifuged at 3220×g for 20 min to pellet any precipitate. The supernatant was transferred to a 2 mL microcentrifuge tube and was centrifuged for another 20 min at 21130×g before HPLC analysis. The depletion of individual polyphenol content expressed as a percent was determined according to the following equation: Polyphenol and phenolic acid content remaining in the supernatant were quantitated by reverse phase HPLC using a Dionex Ultimate 3000 HPLC equipped with an LPG-3400 quaternary pump, a WPS-3000 analytical autosampler, a DAD-3000 diode array detector, and an FLD-3100 fluorescence detector. […] Separation was with formic acid:water (5:95, v/v) (A) and methanol (B). The flow rate was set to 1 mL/min. The gradient was initially 5% B for 1 min, then increased to 35% B over 39 min, from 35% to 95% B over the next 10 min, and held constant at 95% B for 5 min, then decreased to 5% B over 2 min, and re-equilibrated at 5% B for the remaining 8 min. The column oven was set to 30° C. The absorbance was monitored at 254, 280, 370 and 520 nm. […] The gallic acid peaks in the 280 nm chromatogram was quantitated on the basis of authentic external standards. […] The flow rate was set to 0.5 mL/min. The gradient began at 15% B for 2 min, increased to 90% B over 6 min, then decreased to 15% B over 1 min and re-equilibrated at 15% B for the remaining 1 min. The column oven was set to 25° C. We collected absorbance data at 254, 280, 370 and 520 nm. All the peaks were identified in comparison to authentic external standards.

[4] = values from literature; cited from earlier work
[5] = surfactants of Table 2; cited from earlier work
[6] = 0.01M phospholipid in cranberry juice

Compound | Depletion % [3] | HLB value [5] | other results
L-a-phosphatidylinositol (soy) [PI] |  |  | pka [1]: 2.5; Depletion % of monomeric anthocyanins [2, 6]: 41.4±8.5% and 41.4 ± 8.5^a %; Depletion % of monomeric anthocyanins ([2]; 0.01M phospholipid in cranberry juice, listed as Phosphatidylinositol (PI)): 41.4±8.5%
OC[C@H]1O[C@@H](Oc2cc3c(O)cc(O)cc3[o+]c2-c2ccc(O)c(O)c2)[C@H](O)[C@@H](O)[C@@H]1O [cyanidin-3-O-glucoside] | 45.0% |  | Depletion % ([3]; listed as Cyanidin-3-O-glucoside): 45.0±3.5%; Log P [4]: 0.39^†
hexaglycerol dioleate |  | 9 | 
peonidin-3-O-arabinoside | 10.1% |  | Depletion % ([3]; listed as peonidin-3-O-arabinose): 10.1±6.3%
O=c1c(O[C@@H]2O[C@H](CO)[C@H](O)[C@H](O)[C@H]2O)c(-c2ccc(O)c(O)c2)oc2cc(O)cc(O)c12 [quercetin-3-O-galactoside] | 35.4% |  | Depletion % ([3]; listed as Quercetin-3-O-galactoside): 35.4±1.0%
CCCCCCCCCCCCOS(=O)(=O)[O-].[Na+] [sodium dodecyl sulfate] |  | 40 | 
O=c1c(O)c(-c2ccc(O)c(O)c2)oc2cc(O)cc(O)c12 [quercetin] | 41.3% |  | Depletion % ([3]; listed as Quercetin): 41.3±1.8%; Log P [4]: 1.82 ± 0.32
Oc1cc(O)c2cc(O[C@H]3OC[C@H](O)[C@H](O)[C@H]3O)c(-c3cc(O)c(O)c(O)c3)[o+]c2c1 [delphinidin-3-O-arabinoside] | 11.1% |  | Depletion % ([3]; listed as Delphinidin-3-O-arabinose): 11.1±4.9%
O=c1c(-c2ccc(O)cc2)coc2cc(O)cc(O)c12 [genistein] | 61.0% |  | Depletion % ([3]; listed as Genistein): 61.0±3.8%
CCCCCCCC/C=C\CCCCCCCC(=O)OCC(CO)OC(=O)CCCCCCC/C=C\CCCCCCCC (stereo not shown) [glycerol dioleate] |  | 1.9 | 
sorbitan tristearate [sorbitan tristearate (Span 65)] |  |  | Depletion % of monomeric anthocyanins ([2]; 0.01M surfactants in diluted cranberry juice): 2.85%; Depletion % of monomeric anthocyanins ([2]; 0.01M surfactants in diluted cranberry juice, listed as sorbitan tristearate): no significant changes
CCCCCCCC/C=C\CCCCCCCC(=O)O [oleic acid] |  | 1 | 
Phosphatidylcholine (soy) [PC] |  |  | pka [1]: 1.0; Depletion % of monomeric anthocyanins [2, 6]: 6.69±3.57% and 6.69 ± 3.6^b %
COc1cc(-c2[o+]c3cc(O)cc(O)c3cc2O[C@@H]2O[C@H](CO)[C@@H](O)[C@H](O)[C@H]2O)ccc1O [peonidin-3-O-glucoside] | 43.0±4.0% and 43.0% |  | 
sodium stearoyl lactylate |  | 5.1 | 
triglycerol monostearate |  | 7 | 
Oc1cc(O)c2c(c1)O[C@H](c1ccc(O)c(O)c1)[C@@H](O)C2 [(+)-catechin] | 18.4% |  | Depletion % ([3]; listed as (+)-Catechin): 18.4±0.5%; Log P [4]: 0.51^†
CCCCCCCCCCCC(=O)OCC(O)CO (stereo not shown) [glycerol monolaurate] |  | 5.2 | 
Phosphatidylethanolamine (soy) [PE] |  |  | pKa of the amino group [1]: about 9.5; pka [1]: 1.7; Depletion % of monomeric anthocyanins [2, 6]: 10.4±2.5% and 10.4 ± 2.5^b %
OC[C@H]1O[C@@H](Oc2cc3c(O)cc(O)cc3[o+]c2-c2ccc(O)c(O)c2)[C@H](O)[C@@H](O)[C@H]1O [cyanidin-3-O-galactoside] | 49.1±3.5% and 49.1% |  | 
CCCCCCCC/C=C\CCCCCCCC(=O)OCC(O)CO (racemic) [glycerol monooleate] |  | 3.4 | 
peonidin-3-O-galactoside | 42.2% |  | Depletion % ([3]; listed as Peonidin-3-O-galactoside): 42.2±4.1%
Oc1ccc(C=Cc2cc(O)cc(O)c2)cc1 [resveratrol] |  |  | Log P [4]: 2.57^†
CCCCCCCCCCCCCCCCCC(=O)OCC(O)CO (racemic) [glycerol monostearate] |  | 3.8 | 
O=C(O)c1cc(O)c(O)c(O)c1 [gallic acid] | did not induce precipitation of lecithin |  | 
CCCCCCCC/C=C\CCCCCCCC(=O)[O-].[Na+] [sodium oleate] |  | 18 | 
sorbitan monostearate |  | 4.7 | 
Oc1cc(O)c2cc(O[C@@H]3OC[C@H](O)[C@H](O)[C@H]3O)c(-c3ccc(O)c(O)c3)[o+]c2c1 [cyanidin-3-O-arabinoside] | 16.0% |  | Depletion % ([3]; listed as cyanidin-3-O-arabinose): 16.0±6.5%
